In patent US20110039763A1, “TARGETED ANTIMICROBIAL MOIETIES” (C3 JIAN, INC., priority 2009, published 2011):
Entries after “also recorded” stand apart in the source; their conditions may differ. Ends that are not written are not given here.

Assays:
microorganisms [1] = experiment: Targeting peptide binding to target microorganisms (Tables 3, 10, 12); conditions: microorganism(s) the targeting peptide binds; binding in aqueous buffers varied with peptide solubility, preferably 1x PBS
microorganisms [2] = experiment: Morphology, biofilm and growth disrupting peptides (Table 5); type: cell-based; set-up: key: A: Peptide aggregates; B: Less hyphal formation; Clumps; Diffuse clumps and small polyps; F: Diffuse growth; H: Thin; I: Growth inhibition; Microcolony formation; Rippled; Small polyps; Thick; W: Halo formation on top, microlonies on bottom
Excerpt: In certain embodiments peptides that induce alterations in phenotype or other biological activities can also be used as antimicrobial effector moieties.

microorganisms [3] = experiment: Peptide activities: targeting/binding, antimicrobial, growth or phenotype altering (Tables 7, 8); type: cell-based; conditions: peptides having multiple activities

Substance | Target(s) (microorganisms [1]) | Organism, effect (microorganisms [2]; S. pneumoniae) | Activities (microorganisms [3]) | Organism, effect (microorganisms [2]; E. coli) | Organism, effect (microorganisms [2]; E. faecalis) | Organism, effect (microorganisms [2]; MRSA) | Organism, effect (microorganisms [2]; S. epidermidis) | Organism, effect (microorganisms [2]; C. albicans) | Organism, effect (microorganisms [2]; C. jeikeium) | Organism, effect (microorganisms [2]; B. subtilis) | Organism, effect (microorganisms [2]; C. jejuni) | Organism, effect (microorganisms [2]; M. luteus)
PF-515: peptide having multiple activities (DKSTQDKDIKQAKLLAQELGL-NH2) | S. epidermidis; also recorded: C. albicans; also recorded: S. pneumoniae; also recorded: C. jeikeium | S. pneumoniae (H) | G B |  |  |  |  |  |  |  |  | 
PF-517: peptide having multiple activities (VKPTMTASLISTVC; Peptide with targeting and/or antimicrobial activity) | C. jejuni | S. pneumoniae (M) | G B |  |  |  |  |  |  |  |  | 
PF-518: peptide having multiple activities (SFYSKYSRYIDNLAGAIFLFF; Peptide with targeting and/or antimicrobial activity) | S. epidermidis and E. coli and P. aeruginosa and C. albicans and MRSA and S. pneumoniae and E. faecalis | S. pneumoniae (M) | G B | E. coli (R) | E. faecalis (C) | MRSA (C) | S. epidermidis (C) |  |  |  |  | 
PF-519: peptide having multiple activities (YLVYSGVLATAAAF-NH2) | M. luteus; also recorded: E. faecalis; also recorded: C. jeikeium | S. pneumoniae (S) | G B | E. coli (R) | E. faecalis (C) | MRSA (C) |  |  |  |  |  | 
PF-528: peptide having multiple activities (LVDVVVLIRRHLPKSCS-NH2) | S. epidermidis and P. aeruginosa and C. albicans and MRSA and S. pneumoniae and E. faecalis | S. pneumoniae (R) | G B | E. coli (H) |  | MRSA (H) | S. epidermidis (H) | C. albicans (C) |  |  |  | 
PF-540: peptide having multiple activities (KSILILIKVIFIGQTTIIL; Peptide with targeting and/or antimicrobial activity) | C. albicans | S. pneumoniae (R) | G B | E. coli (R) |  | MRSA (H) | S. epidermidis (H) |  |  |  |  | 
PF-542: peptide having multiple activities (KKDNPSLNDQDKNAVLNLLALAK; Peptide with targeting and/or antimicrobial activity) | C. jeikeium | S. pneumoniae (H) | G B |  |  |  |  |  |  |  |  | 
PF-546: peptide having multiple activities (PIIAPTIKTQIQ; Peptide with targeting and/or antimicrobial activity) | S. epidermidis; also recorded: E. coli; also recorded: C. albicans; also recorded: S. pneumoniae; also recorded: E. faecalis; also recorded: C. jeikeium | S. pneumoniae (D) | G B | E. coli (R) | E. faecalis (D) | MRSA (D) | S. epidermidis (D) |  | C. jeikeium (D) |  |  | 
PF-549: peptide having multiple activities (TGIGPIARPIEHGLDS; Peptide with targeting and/or antimicrobial activity) | E. coli; also recorded: C. albicans; also recorded: S. pneumoniae; also recorded: C. jeikeium |  | G B |  |  | MRSA (C) |  |  |  | B. subtilis (D) |  | 
PF-550: peptide having multiple activities (STENGWQEFESYADVGVDPRRYVPL; Peptide with targeting and/or antimicrobial activity) | S. pneumoniae |  | G B |  |  |  |  |  |  | B. subtilis (D) |  | 
PF-551: peptide having multiple activities (QVKEKRREIELQFRDAEKKLEASVQAE; Peptide with targeting and/or antimicrobial activity) | S. pneumoniae |  | G B |  |  | MRSA (C) |  |  |  |  |  | 
PF-552: peptide having multiple activities (ELDKADAALGPAKNLAPLDVINRS; Peptide with targeting and/or antimicrobial activity) | S. pneumoniae |  | G B |  |  |  |  |  |  | B. subtilis (D) |  | 
PF-553: peptide having multiple activities (LTIVGNALQQKNQKLLLNQKKITSLG; Peptide with targeting and/or antimicrobial activity) | S. epidermidis and E. coli and P. aeruginosa and C. albicans and MRSA and S. pneumoniae and C. jeikeium | S. pneumoniae (R) | G B |  |  | MRSA (M) |  |  | C. jeikeium (R) | B. subtilis (D) |  | 
PF-554: peptide having multiple activities (AKNFLTRTAEEIGEQAVREGNINGP; Peptide with targeting and/or antimicrobial activity) | S. pneumoniae |  | G B |  |  |  |  |  |  | B. subtilis (D) |  | 
PF-557: peptide having multiple activities (AANKAREQAAAEAKRKAEEQAR; Peptide with targeting and/or antimicrobial activity) | S. pneumoniae |  | G B |  |  |  |  |  |  | B. subtilis (D) |  | 
PF-558: peptide having multiple activities (ADAPPPLIVRYS; Peptide with targeting and/or antimicrobial activity) | S. epidermidis; also recorded: E. coli; also recorded: C. albicans; also recorded: C. jeikeium; also recorded: C. jejuni | S. pneumoniae (R) | G B |  |  | MRSA (C) | S. epidermidis (M) |  |  | B. subtilis (D) | C. jejuni (H) | 
PF-559: peptide having multiple activities (SRPGKPGGVSIDVSRDRQDILSNYP; Peptide with targeting and/or antimicrobial activity) | S. epidermidis; also recorded: M. luteus; also recorded: C. albicans; also recorded: C. jeikeium; also recorded: C. jejuni |  | G B |  |  |  |  |  |  | B. subtilis (C) | C. jejuni (A) | 
PF-560: peptide having multiple activities (FGNPFRGFTLAMEADFKKRK; Peptide with targeting and/or antimicrobial activity) | S. epidermidis; also recorded: M. luteus; also recorded: E. coli; also recorded: S. pneumoniae; also recorded: C. jeikeium; also recorded: C. jejuni | S. pneumoniae (R) | G B |  |  | MRSA (C) |  |  |  | B. subtilis (D) | C. jejuni (A) | 
PF-563: peptide having multiple activities (RPELDNELDVVQNSASLDKLQASYN; Peptide with targeting and/or antimicrobial activity) | S. epidermidis; also recorded: M. luteus; also recorded: C. jeikeium | S. pneumoniae (H) | G B |  |  |  |  |  |  | B. subtilis (D) | C. jejuni (H) | 
PF-564: peptide having multiple activities (TIILNDQINSLQERLNKLNAETDRR; Peptide with targeting and/or antimicrobial activity) | S. epidermidis; also recorded: C. albicans; also recorded: S. pneumoniae; also recorded: C. jeikeium |  | G B |  |  | MRSA (C) |  |  | C. jeikeium (R) | B. subtilis (D) | C. jejuni (R) | 
PF-566: peptide having multiple activities (EAQQVTQQLGADFNAITTPTATKV; Peptide with targeting and/or antimicrobial activity) | P. mirabilis; also recorded: S. pneumoniae | S. pneumoniae (D) | G B |  |  | MRSA (M) |  |  | C. jeikeium (C) | B. subtilis (C) | C. jejuni (D) | M. luteus (D)
PF-567: peptide having multiple activities (QQRVKAVDASLSQVSTQVSGAVASA; Peptide with targeting and/or antimicrobial activity) | S. epidermidis and P. aeruginosa and C. albicans and MRSA and S. pneumoniae and C. jeikeium | S. pneumoniae (D) | G B |  |  | MRSA (D) |  |  | C. jeikeium (C) |  | C. jejuni (D) | M. luteus (C)
PF-569: peptide having multiple activities (KSKISEYTEKEFLEFVEDIYTNNK; Peptide with targeting and/or antimicrobial activity) | M. luteus; also recorded: P. mirabilis; also recorded: S. pneumoniae; also recorded: E. faecalis; also recorded: C. jeikeium |  | G B |  |  |  |  |  |  | B. subtilis (D) |  | 
PF-572: peptide having multiple activities (WRASKGLPGFKAG; Peptide with targeting and/or antimicrobial activity) | S. epidermidis; also recorded: M. luteus; also recorded: E. coli; also recorded: S. pneumoniae; also recorded: C. jeikeium | S. pneumoniae (R) | G B |  |  |  |  |  |  | B. subtilis (D) |  | 
